Data taken from ChEMBL document CHEMBL1130709, “Synthesis and phototoxic property of tetra- and octa-glycoconjugated tetraphenylchlorins” (Bioorg Med Chem Lett, 1998).

Test: Photosensitizing ability was evaluated by the degradation of DPBF by singlet oxygen in DMSO solution at 27 degree Centigrade
Work on OC[C@@H]1O[C@H](Oc2ccc(-c3c4nc(c(-c5ccc(O[C@@H]6O[C@H](CO)[C@@H](O)[C@H](O)[C@H]6O)cc5)c5nc(c(-c6ccc(O[C@@H]7O[C@H](CO)[C@@H](O)[C@H](O)[C@H]7O)cc6)c6ccc([nH]6)c(-c6ccc(O[C@H]7O[C@@H](CO)[C@H](O)[C@@H](O)[C@@H]7O)cc6)c6ccc3[nH]6)CC5)C=C4)cc2)[C@@H](O)[C@H](O)[C@H]1O yielded a k obs of 0.0094 s⁻¹.
With OC[C@@H]1O[C@H](Oc2cc(O[C@H]3O[C@@H](CO)[C@H](O)[C@@H](O)[C@@H]3O)cc(-c3c4nc(c(-c5cc(O[C@@H]6O[C@H](CO)[C@@H](O)[C@H](O)[C@H]6O)cc(O[C@@H]6O[C@H](CO)[C@@H](O)[C@H](O)[C@H]6O)c5)c5nc(c(-c6cc(O[C@@H]7O[C@H](CO)[C@@H](O)[C@H](O)[C@H]7O)cc(O[C@@H]7O[C@H](CO)[C@@H](O)[C@H](O)[C@H]7O)c6)c6ccc([nH]6)c(-c6cc(O[C@@H]7O[C@H](CO)[C@@H](O)[C@H](O)[C@H]7O)cc(O[C@@H]7O[C@H](CO)[C@@H](O)[C@H](O)[C@H]7O)c6)c6ccc3[nH]6)CC5)C=C4)c2)[C@@H](O)[C@H](O)[C@H]1O the k obs was 0.011 s⁻¹.
In the case of CC(=O)OC[C@@H]1O[C@H](Oc2cc(O[C@@H]3O[C@H](COC(C)=O)[C@@H](OC(C)=O)[C@H](OC(C)=O)[C@H]3OC(C)=O)cc(-c3c4nc(c(-c5cc(O[C@H]6O[C@@H](COC(C)=O)[C@H](OC(C)=O)[C@@H](OC(C)=O)[C@@H]6OC(C)=O)cc(O[C@H]6O[C@@H](COC(C)=O)[C@H](OC(C)=O)[C@@H](OC(C)=O)[C@@H]6OC(C)=O)c5)c5ccc([nH]5)c(-c5cc(O[C@H]6O[C@@H](COC(C)=O)[C@H](OC(C)=O)[C@@H](OC(C)=O)[C@@H]6OC(C)=O)cc(O[C@@H]6O[C@H](COC(C)=O)[C@@H](OC(C)=O)[C@H](OC(C)=O)[C@H]6OC(C)=O)c5)c5ccc([nH]5)c(-c5cc(O[C@@H]6O[C@H](COC(C)=O)[C@@H](OC(C)=O)[C@H](OC(C)=O)[C@H]6OC(C)=O)cc(O[C@@H]6O[C@H](COC(C)=O)[C@@H](OC(C)=O)[C@H](OC(C)=O)[C@H]6OC(C)=O)c5)c5nc3CC5)C=C4)c2)[C@@H](OC(C)=O)[C@H](OC(C)=O)[C@H]1OC(C)=O, the k obs is reported as 0.011 s⁻¹.
In the case of CC(=O)OC[C@@H]1O[C@H](Oc2ccc(-c3c4nc(c(-c5ccc(O[C@@H]6O[C@H](COC(C)=O)[C@@H](OC(C)=O)[C@H](OC(C)=O)[C@H]6OC(C)=O)cc5)c5nc(c(-c6ccc(O[C@@H]7O[C@H](COC(C)=O)[C@@H](OC(C)=O)[C@H](OC(C)=O)[C@H]7OC(C)=O)cc6)c6ccc([nH]6)c(-c6ccc(O[C@H]7O[C@@H](COC(C)=O)[C@H](OC(C)=O)[C@@H](OC(C)=O)[C@@H]7OC(C)=O)cc6)c6ccc3[nH]6)CC5)C=C4)cc2)[C@@H](OC(C)=O)[C@H](OC(C)=O)[C@H]1OC(C)=O, the k obs is reported as 0.012 s⁻¹.
In the case of CC(=O)OC[C@@H]1O[C@H](Oc2ccc(-c3c4nc(c(-c5ccc(O[C@@H]6O[C@H](COC(C)=O)[C@H](OC(C)=O)[C@H](OC(C)=O)[C@H]6OC(C)=O)cc5)c5nc(c(-c6ccc(O[C@@H]7O[C@H](COC(C)=O)[C@H](OC(C)=O)[C@H](OC(C)=O)[C@H]7OC(C)=O)cc6)c6ccc([nH]6)c(-c6ccc(O[C@H]7O[C@@H](COC(C)=O)[C@@H](OC(C)=O)[C@@H](OC(C)=O)[C@@H]7OC(C)=O)cc6)c6ccc3[nH]6)CC5)C=C4)cc2)[C@@H](OC(C)=O)[C@H](OC(C)=O)[C@@H]1OC(C)=O, the k obs is reported as 0.0068 s⁻¹.
Molecule OC[C@@H]1O[C@H](Oc2ccc(-c3c4nc(c(-c5ccc(O[C@@H]6O[C@H](CO)[C@H](O)[C@H](O)[C@H]6O)cc5)c5nc(c(-c6ccc(O[C@@H]7O[C@H](CO)[C@H](O)[C@H](O)[C@H]7O)cc6)c6ccc([nH]6)c(-c6ccc(O[C@H]7O[C@@H](CO)[C@@H](O)[C@@H](O)[C@@H]7O)cc6)c6ccc3[nH]6)CC5)C=C4)cc2)[C@@H](O)[C@H](O)[C@@H]1O has a k obs of 0.0062 s⁻¹.
